According to US4740233A, “Substituted 1,2,4-triazolo[1,5-a]-pyrimidine-2-sulfonamides and compositions and methods of controlling undesired vegetation and suppressing the nitrification of ammonium nitrogen in soil” (The Dow Chemical Company, priority 1986, dated 1988):

Legend:
cotton [1] = test: Postemergent control of plant species; type: in vivo, Gossypium spp.; conditions: Gossypium hirsutum, post-emergence, 336 h, read-out: percent postemergent control
Method: (§1) In representative operations, each compound to be utilized in a series of tests is dissolved in acetone to one-half of the final volume (twice the final concentration) to be used and the acetone solution in each case is admixed with an equal volume of water containing 0.1 percent by weight of surface active material. The compositions, generally in the nature of an emulsion, were employed to spray separate respective plant species which had been grown to a 2-4 leaf stage in soil of good nutrient content in a greenhouse. The various beds were positioned side by side and exposed to substantially identical conditions of temperature and light. Each bed was maintained so as to prevent any interaction with test compounds in different seed beds. Other plants were left untreated to serve as controls. After treatment, the plants were maintained for about two weeks under greenhouse conditions conducive for good plant growth and watered as necessary. Control refers to the reduction in growth compared to the observed results of the same untreated species.

rape [2] = test: Postemergent control of plant species; type: in vivo, Brassica napus; conditions: Brassica napus, post-emergence, 336 h, read-out: percent postemergent control
Method: as §1

soybean [3] = test: Postemergent control of plant species; type: in vivo, Glycine max.; conditions: Glycine max, post-emergence, 336 h, read-out: percent postemergent control
Method: as §1

sugar beet [4] = test: Postemergent control of plant species; type: in vivo, Beta saccharifera; conditions: Beta vulgaris, post-emergence, 336 h, read-out: percent postemergent control
Method: as §1

jimsonweed [5] = test: Postemergent control of plant species; type: in vivo, Datura stramonium; conditions: Datura stramonium, post-emergence, 336 h, read-out: percent postemergent control
Method: as §1

annual morning glory [6] = test: Postemergent control of plant species; type: in vivo, Ipomoea spp.; conditions: Ipomoea, post-emergence, 336 h, read-out: percent postemergent control
Method: as §1

pigweed = test: Postemergent control of plant species; type: in vivo, Amaranthus spp.; conditions: Amaranthus retroflexus, post-emergence, 336 h, read-out: percent postemergent control
Method: as §1

velvetleaf [7] = test: Postemergent control of plant species; type: in vivo, Abutilon theophrasti; conditions: Abutilon theophrasti, post-emergence, 336 h, read-out: percent postemergent control
Method: as §1

corn [8] = test: Postemergent control of plant species; type: in vivo, Zea mays; conditions: Zea mays, post-emergence, 336 h, read-out: percent postemergent control
Method: as §1

rice [9] = test: Postemergent control of plant species; type: in vivo, Oryza sativa; conditions: Oryza sativa, post-emergence, 336 h, read-out: percent postemergent control
Method: as §1

sorghum [10] = test: Postemergent control of plant species; type: in vivo, Sorghum vulgare; conditions: Sorghum, post-emergence, 336 h, read-out: percent postemergent control
Method: as §1

wheat [11] = test: Postemergent control of plant species; type: in vivo, Triticum aestivum; conditions: Triticum aestivum, post-emergence, 336 h, read-out: percent postemergent control
Method: as §1

barnyardgrass [12] = test: Postemergent control of plant species; type: in vivo, Echinochloa crusgalli; conditions: Echinochloa crus-galli, post-emergence, 336 h, read-out: percent postemergent control
Method: as §1

crabgrass = test: Postemergent control of plant species; type: in vivo, Digitaria spp.; conditions: Digitaria sanguinalis, post-emergence, 336 h, read-out: percent postemergent control
Method: as §1

yellow foxtail [13] = test: Postemergent control of plant species; type: in vivo, Setaria lutescens; conditions: Setaria, post-emergence, 336 h, read-out: percent postemergent control
Method: as §1

johnson grass [14] = test: Postemergent control of plant species; type: in vivo, Sorghum halepense; conditions: Sorghum halepense, post-emergence, 336 h, read-out: percent postemergent control
Method: as §1

wild oats [15] = test: Postemergent control of plant species; type: in vivo, Avena fatua; conditions: Avena fatua, post-emergence, 336 h, read-out: percent postemergent control
Method: as §1

yellow nutsedge [16] = test: Postemergent control of plant species; type: in vivo, Cyperus esculentus; conditions: Cyperus, post-emergence, 336 h, read-out: percent postemergent control
Method: as §1

[17] = test system: nitrification of ammonium nitrogen; test: Suppression of nitrification of ammonium nitrogen in soil; conditions: 27° C.
Summary of the method: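 Soil (20 g) moistened to its 1/3 bar tension value, mixed with test chemical and incubated sealed for two weeks at 27° C. Nitrate extracted with ammonium sulfate solution and measured by nitrate-specific ion electrode; value given as % NH4-N remaining.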

cotton [18] = test: Preemergent control of plant species; type: in vivo, Gossypium spp.; conditions: Gossypium hirsutum, pre-emergence, 336 h; 0.25 lb/acre; read-out: percent preemergent control
Summary of the method: (§2)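 Seeds sown in agricultural soil in greenhouse beds, then aqueous-emulsion compositions applied uniformly to the bed surface at listed rates. Beds kept two weeks under greenhouse growth conditions with watering. Control expressed as growth reduction versus water-treated beds of the same species.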

rape [19] = test: Preemergent control of plant species; type: in vivo, Brassica napus; conditions: Brassica napus, pre-emergence, 336 h; 0.25 lb/acre; read-out: percent preemergent control
Summary of the method: as §2

soybean [20] = test: Preemergent control of plant species; type: in vivo, Glycine max.; conditions: Glycine max, pre-emergence, 336 h; 0.25 lb/acre; read-out: percent preemergent control
Summary of the method: as §2

sugar beet [21] = test: Preemergent control of plant species; type: in vivo, Beta saccharifera; conditions: Beta vulgaris, pre-emergence, 336 h; 0.25 lb/acre; read-out: percent preemergent control
Summary of the method: as §2

jimsonweed [22] = test: Preemergent control of plant species; type: in vivo, Datura stramonium; conditions: Datura stramonium, pre-emergence, 336 h; 0.25 lb/acre; read-out: percent preemergent control
Summary of the method: as §2

annual morning glory [23] = test: Preemergent control of plant species; type: in vivo, Ipomoea spp.; conditions: Ipomoea, pre-emergence, 336 h; 0.25 lb/acre; read-out: percent preemergent control
Summary of the method: as §2

velvetleaf [24] = test: Preemergent control of plant species; type: in vivo, Abutilon theophrasti; conditions: Abutilon theophrasti, pre-emergence, 336 h; 0.25 lb/acre; read-out: percent preemergent control
Summary of the method: as §2

corn [25] = test: Preemergent control of plant species; type: in vivo, Zea mays; conditions: Zea mays, pre-emergence, 336 h; 0.25 lb/acre; read-out: percent preemergent control
Summary of the method: as §2

rice [26] = test: Preemergent control of plant species; type: in vivo, Oryza sativa; conditions: Oryza sativa, pre-emergence, 336 h; 0.25 lb/acre; read-out: percent preemergent control
Summary of the method: as §2

sorghum [27] = test: Preemergent control of plant species; type: in vivo, Sorghum vulgare; conditions: Sorghum, pre-emergence, 336 h; 0.25 lb/acre; read-out: percent preemergent control
Summary of the method: as §2

wheat [28] = test: Preemergent control of plant species; type: in vivo, Triticum aestivum; conditions: Triticum aestivum, pre-emergence, 336 h; 0.25 lb/acre; read-out: percent preemergent control
Summary of the method: as §2

barnyardgrass [29] = test: Preemergent control of plant species; type: in vivo, Echinochloa crusgalli; conditions: Echinochloa crus-galli, pre-emergence, 336 h; 0.25 lb/acre; read-out: percent preemergent control
Summary of the method: as §2

johnson grass [30] = test: Preemergent control of plant species; type: in vivo, Sorghum halepense; conditions: Sorghum halepense, pre-emergence, 336 h; 0.25 lb/acre; read-out: percent preemergent control
Summary of the method: as §2

wild oats [31] = test: Preemergent control of plant species; type: in vivo; conditions: Avena fatua, pre-emergence, 336 h; 0.25 lb/acre; read-out: percent preemergent control
Summary of the method: as §2

yellow foxtail [32] = test: Preemergent control of plant species; type: in vivo, Setaria lutescens; conditions: Setaria, pre-emergence, 336 h; 0.25 lb/acre; read-out: percent preemergent control
Summary of the method: as §2

yellow nutsedge [33] = test: Preemergent control of plant species; type: in vivo, Cyperus esculentus; conditions: Cyperus, pre-emergence, 336 h; 0.25 lb/acre; read-out: percent preemergent control
Summary of the method: as §2

## CCOC(=O)CN(c1c(C)cccc1C(=O)OC)S(=O)(=O)c1nc2nc(C)cc(C)n2n1 [Compound 266]
Cotton [1]
  plant injury at 500 ppm: 10%
Rape [2]
  plant injury at 500 ppm: 75%
Soybean [3]
  plant injury at 500 ppm: 80%
Sugar beet [4]
  plant injury at 500 ppm: 30%
Jimsonweed [5]
  pest or weed control at 500 ppm: 90%
Annual morning glory [6]
  pest or weed control at 500 ppm: 85%
pigweed
  pest or weed control at 500 ppm: 25%
Velvetleaf [7]
  pest or weed control at 500 ppm: 75%
Corn [8]
  plant injury at 500 ppm: 0%
Rice [9]
  plant injury at 500 ppm: 40%
Sorghum [10]
  plant injury at 500 ppm: 0%
Wheat [11]
  plant injury at 500 ppm: 0%
Barnyardgrass [12]
  pest or weed control at 500 ppm: 75%
crabgrass
  pest or weed control at 500 ppm: 70%
Yellow foxtail [13]
  pest or weed control at 500 ppm: 80%
Johnson grass [14]
  pest or weed control at 500 ppm: 0%
Wild oats [15]
  pest or weed control at 500 ppm: 0%
Yellow nutsedge [16]
  pest or weed control at 500 ppm: 0%
[17]; 0.06 ppm
  % NH4-N Remaining After 2 Weeks Incubation: 0%
[17]; 0.25 ppm
  % NH4-N Remaining After 2 Weeks Incubation: 0%
[17]; 1 ppm
  % NH4-N Remaining After 2 Weeks Incubation: 2%
[17]; 4 ppm
  % NH4-N Remaining After 2 Weeks Incubation: 13%

## CSc1cccc(Cl)c1NS(=O)(=O)c1nc2nc(C)cc(C)n2n1 [Compound 69]
Cotton [1]
  plant injury at 500 ppm: 90%
Rape [2]
  plant injury at 500 ppm: 90%
Soybean [3]
  plant injury at 500 ppm: 40%
Sugar beet [4]
  plant injury at 500 ppm: 100%
Jimsonweed [5]
  pest or weed control at 500 ppm: 90%
Annual morning glory [6]
  pest or weed control at 500 ppm: 80%
pigweed
  pest or weed control at 500 ppm: 100%
Velvetleaf [7]
  pest or weed control at 500 ppm: 85%
Corn [8]
  plant injury at 500 ppm: 90%
Rice [9]
  plant injury at 500 ppm: 0%
Sorghum [10]
  plant injury at 500 ppm: 80%
Wheat [11]
  plant injury at 500 ppm: 0%
Barnyardgrass [12]
  pest or weed control at 500 ppm: 80%
crabgrass
  pest or weed control at 500 ppm: 80%
Yellow foxtail [13]
  pest or weed control at 500 ppm: 90%
Johnson grass [14]
  pest or weed control at 500 ppm: 95%
Wild oats [15]
  pest or weed control at 500 ppm: 0%
Yellow nutsedge [16]
  pest or weed control at 500 ppm: 80%

## CC(C)=NOC(=O)c1cccc(C)c1NS(=O)(=O)c1nc2nc(C)cc(C)n2n1 [Compound 78]
Cotton [18]
  plant injury at 280.212 g/ha: 0%
Rape [19]
  plant injury at 280.212 g/ha: 100%
Soybean [20]
  plant injury at 280.212 g/ha: 30%
Sugar beet [21]
  plant injury at 280.212 g/ha: 70%
Jimsonweed [22]
  pest or weed control at 280.212 g/ha: 0%
Annual morning glory [23]
  pest or weed control at 280.212 g/ha: 0%
Velvetleaf [24]
  pest or weed control at 280.212 g/ha: 30%
Corn [25]
  plant injury at 280.212 g/ha: 10%
Rice [26]
  plant injury at 280.212 g/ha: 40%
Sorghum [27]
  plant injury at 280.212 g/ha: 0%
Wheat [28]
  plant injury at 280.212 g/ha: 40%
Barnyardgrass [29]
  pest or weed control at 280.212 g/ha: 20%
Johnson grass [30]
  pest or weed control at 280.212 g/ha: 0%
Wild oats [31]
  pest or weed control at 280.212 g/ha: 30%
Yellow foxtail [32]
  pest or weed control at 280.212 g/ha: 20%
Yellow nutsedge [33]
  pest or weed control at 280.212 g/ha: 50%
[17]; 0.06 ppm
  % NH4-N Remaining After 2 Weeks Incubation: 74%
[17]; 0.25 ppm
  % NH4-N Remaining After 2 Weeks Incubation: 32%
[17]; 1 ppm
  % NH4-N Remaining After 2 Weeks Incubation: 53%
[17]; 4 ppm
  % NH4-N Remaining After 2 Weeks Incubation: 72%
